Columns and labels:
[1] = biological target: T1, human orexin-1 receptor (hOX1R) (Homo sapiens, UniProt O43613); assay: Measurement of orexin antagonistic activity (intracellular Ca2+ fluorescence, FDSS) on hOX1R; type: cell-based; details: CHO cells forcibly expressing hOX1R; Fluo-4AM; ligand peptide (substituted human orexin-A) 300 pM; compound preincubated 30 minutes; read-out: IC50 Value OX1
T1 construct: expressed in transfected cells; host or cells: Chinese hamster ovary (CHO) cells
T1 sequence (O43613 1-425): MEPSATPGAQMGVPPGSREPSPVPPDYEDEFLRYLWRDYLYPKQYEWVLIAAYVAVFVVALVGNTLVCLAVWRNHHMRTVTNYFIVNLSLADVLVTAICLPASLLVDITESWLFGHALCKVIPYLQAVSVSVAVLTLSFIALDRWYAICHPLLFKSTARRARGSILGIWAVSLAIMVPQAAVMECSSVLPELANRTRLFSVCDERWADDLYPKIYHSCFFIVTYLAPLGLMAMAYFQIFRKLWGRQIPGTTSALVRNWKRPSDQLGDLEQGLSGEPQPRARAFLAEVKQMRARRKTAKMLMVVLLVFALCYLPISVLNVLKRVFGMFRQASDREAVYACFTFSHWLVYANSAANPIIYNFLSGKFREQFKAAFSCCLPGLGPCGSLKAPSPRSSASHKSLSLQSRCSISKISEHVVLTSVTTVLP
How it was run: (§1)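 CHO cells stably expressing hOX1R or hOX2R, loaded with 0.5 μM Fluo-4AM in HEPES/HBSS buffer with 0.1% BSA and 2.5 mM probenecid, pH 7.4, then preincubated 30 min with compound. Fluorescence recorded each second for 3 min by FDSS; maximum intensity taken as intracellular Ca2+ indicator of antagonism.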

[2] = biological target: T2, orexin-2 receptor (hOX2R) (Homo sapiens, UniProt O43614); assay: Measurement of orexin antagonistic activity (intracellular Ca2+ fluorescence, FDSS) on hOX2R; type: cell-based; details: CHO cells forcibly expressing hOX2R; Fluo-4AM; ligand peptide (substituted human orexin-A) 3 nM; compound preincubated 30 minutes; read-out: IC50 Value OX2
T2 construct: expressed in transfected cells; host or cells: Chinese hamster ovary (CHO) cells
T2 sequence (O43614 1-444): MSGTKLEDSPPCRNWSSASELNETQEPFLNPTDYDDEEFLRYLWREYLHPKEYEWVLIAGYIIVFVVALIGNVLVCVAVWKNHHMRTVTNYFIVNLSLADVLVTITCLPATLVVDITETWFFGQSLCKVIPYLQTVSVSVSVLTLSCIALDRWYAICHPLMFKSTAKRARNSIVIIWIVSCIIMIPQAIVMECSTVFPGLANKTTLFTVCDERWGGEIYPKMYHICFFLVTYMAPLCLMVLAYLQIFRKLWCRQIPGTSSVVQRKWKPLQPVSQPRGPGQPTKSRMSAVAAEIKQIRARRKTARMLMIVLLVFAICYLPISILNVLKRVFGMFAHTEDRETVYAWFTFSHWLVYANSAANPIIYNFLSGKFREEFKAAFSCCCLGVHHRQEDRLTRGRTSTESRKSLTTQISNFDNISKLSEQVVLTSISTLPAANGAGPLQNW
How it was run: as §1

Compound | IC50 [1] | IC50 [2]
CCN(C(=O)c1nc(C)ccc1-n1nccn1)[C@@H](C)Cc1noc(-c2ccc(F)cn2)n1 [Example 58, N-Ethyl-N-{(2S)-1-[5-(5-fluoropyridin-2-yl)-1,2,4-oxadiazol-3-yl]propan-2-yl}-6-methyl-3-(2H-1,2,3-triazol-2-yl) pyridine-2-carboxamide] | 22.2 nM | 1620 nM
Cc1ccc(-n2nccn2)c(C(=O)N(C)[C@@H](C)Cc2noc(-c3ccc(F)cc3)n2)c1 [Example 59, N-{(2S)-1-[5-(4-Fluorophenyl)-1,2,4-oxadiazol-3-yl]propan-2-yl}-N,5-dimethyl-2-(2H-1,2,3-triazol-2-yl) benzamide] | 0.5 nM | 10.1 nM
Cc1ccc(-c2ncccn2)c(C(=O)N(C)[C@@H](C)Cc2noc(-c3ccc(F)cc3)n2)c1 [Example 60, N-{(2S)-1-[5-(4-Fluorophenyl)-1,2,4-oxadiazol-3-yl]propan-2-yl}-N,5-dimethyl-2-(pyrimidin-2-yl)benzamide] | 1.3 nM | 45 nM
CCN(C(=O)c1cc(C)ccc1-n1nccn1)[C@@H](C)Cc1noc(-c2ccc(F)cc2)n1 [Example 61] | 0.7 nM | 3.3 nM
CCN(C(=O)c1cc(C)ccc1-n1nccn1)[C@@H](C)Cn1nnc(-c2ccc(F)cc2)n1 [Example 62, N-Ethyl-N-{(2S)-1-[5-(4-fluorophenyl)-2H-tetrazol-2-yl]propan-2-yl}-5-methyl-2-(2H-1,2,3-triazol-2-yl)benzamide] | 0.7 nM | 2.3 nM
COCCN(C(=O)c1cc(C)ccc1-n1nccn1)[C@@H](C)Cn1nnc(-c2ccc(F)cc2)n1 [Example 63, N-{(2S)-1-[5-(4-Fluorophenyl)-2H-tetrazol-2-yl]propan-2-yl}-N-(2-methoxyethyl)-5-methyl-2-(2H-1,2,3-triazol-2-yl)benzamide] | 2.2 nM | 66.9 nM
Cc1ccc(-n2nccn2)c(C(=O)N(CCO)[C@@H](C)Cn2nnc(-c3ccc(F)cc3)n2)c1 [Example 64, N-{(2S)-1-[5-(4-Fluorophenyl)-2H-tetrazol-2-yl]propan-2-yl}-N-(2-hydroxyethyl)-5-methyl-2-(2H-1,2,3-triazol-2-yl)benzamide] | 1 nM | 47.9 nM
CCN(C(=O)c1nc(C)ccc1-n1nccn1)[C@@H](C)Cn1nnc(-c2ccc(F)cc2)n1 [Example 65, N-Ethyl-N-{(2S)-1-[5-(4-fluorophenyl)-2H-tetrazol-2-yl]propan-2-yl}-6-methyl-3-(2H-1,2,3-triazol-2-yl)pyridine-2-carboxamide] | 1.3 nM | 144 nM
CCN(C(=O)c1cc(F)ccc1-n1nccn1)[C@@H](C)Cn1nnc(-c2ccc(F)cc2)n1 [Example 66, N-Ethyl-5-fluoro-N-{(2S)-1-[5-(4-fluorophenyl)-2H-tetrazol-2-yl]propan-2-yl}-2-(2H-1,2,3-triazol-2-yl) benzamide] | 1.6 nM | 129 nM
CCN(C(=O)c1ccccc1-n1nccn1)[C@@H](C)Cn1nnc(-c2ccc(F)cc2)n1 [Example 67] | 1.8 nM | 75.9 nM
CCN(C(=O)c1cc(C)ccc1-c1ncccn1)[C@@H](C)Cn1nnc(-c2ccc(F)cc2)n1 [Example 68, N-Ethyl-N-{(2S)-1-[5-(4-fluorophenyl)-2H-tetrazol-2-yl]propan-2-yl}-5-methyl-2-(pyrimidin-2-yl)benzamide] | 0.8 nM | 33.7 nM
CCN(C(=O)c1cc(C)ccc1-n1nccn1)[C@@H](C)Cn1cc(-c2ccc(F)cc2)nn1 [Example 71, N-Ethyl-N-{(2S)-1-[4-(4-fluorophenyl)-1H-1,2,3-triazol-1-yl]propan-2-yl}-5-methyl-2-(2H-1,2,3-triazol-2-yl)benzamide] | 1.3 nM | 21.8 nM
COCCN(C(=O)c1cc(C)ccc1-n1nccn1)[C@@H](C)Cn1cc(-c2ccc(F)cc2)nn1 [Example 72, N-{(2S)-1-[4-(4-Fluorophenyl)-1H-1,2,3-triazol-1-yl]propan-2-yl}-N-(2-methoxyethyl)-5-methyl-2-(2H-1,2,3-triazol-2-yl)benzamide] | 102 nM | 401 nM
Cc1ccc(-n2nccn2)c(C(=O)N(CCO)[C@@H](C)Cn2cc(-c3ccc(F)cc3)nn2)c1 [Example 73, N-{(2S)-1-[4-(4-Fluorophenyl)-1H-1,2,3-triazol-1-yl]propan-2-yl}-N-(2-hydroxyethyl)-5-methyl-2-(2H-1,2,3-triazol-2-yl)benzamide] | 80.3 nM | 5.7 nM
CCN(C(=O)c1cc(C)ccc1-n1nccn1)C(C)Cc1cnn(-c2ccc(F)cn2)c1 (centres unmarked) [Example 74, N-Ethyl-N-{1-[1-(5-fluoropyridin-2-yl)-1H-pyrazol-4-yl]propan-2-yl}-5-methyl-2-(2H-1,2,3-triazol-2-yl)benzamide] | 1.3 nM | 13.1 nM
CCN(C(=O)c1cc(C)ccc1-n1nccn1)C(C)Cc1ccn(-c2ccc(F)cn2)n1 (centres unmarked) [Example 75, N-Ethyl-N-{1-[1-(5-fluoropyridin-2-yl)-1H-pyrazol-3-yl]propan-2-yl}-5-methyl-2-(2H-1,2,3-triazol-2-yl) benzamide] | 1.4 nM | 1.7 nM
CCN(C(=O)c1cc(C)ccc1-n1nccn1)[C@@H](C)Cc1nnc(-c2ccc(F)cc2)o1 [Example 76, N-Ethyl-N-{(2S)-1-[5-(4-fluorophenyl)-1,3,4-oxadiazol-2-yl]propan-2-yl}-5-methyl-2-(2H-1,2,3-triazol-2-yl)benzamide] | 1 nM | 59.7 nM
CCN(C(=O)c1nc(C)ccc1-n1nccn1)[C@@H](C)Cn1cc(-c2ccc(F)cn2)nn1 [Example 77, N-Ethyl-N-{(2S)-1-[4-(5-fluoropyridin-2-yl)-1H-1,2,3-triazol-1-yl]propan-2-yl}-6-methyl-3-(2H-1,2,3-triazol-2-yl)pyridine-2-carboxamide] | 48.8 nM | 1450 nM
CCN(C(=O)c1cc(F)ccc1-n1nccn1)[C@@H](C)Cn1cc(-c2ccc(F)cn2)nn1 [Example 78, N-Ethyl-5-fluoro-N-{(2S)-1-[4-(5-fluoropyridin-2-yl)-1H-1,2,3-triazol-1-yl]propan-2-yl}-2-(2H-1,2,3-triazol-2-yl)benzamide] | 20.9 nM | 593 nM
CCN(C(=O)c1cc(C)ccc1-c1ncccn1)[C@@H](C)Cn1cc(-c2ccc(F)cn2)nn1 [Example 79, N-Ethyl-N-{(2S)-1-[4-(5-fluoropyridin-2-yl)-1H-1,2,3-triazol-1-yl]propan-2-y}-5-methyl-2-(pyrimidin-2-yl)benzamide] | 63.6 nM | 427 nM
CCN(C(=O)c1nc(C)ccc1-c1ncccn1)[C@@H](C)Cn1cc(-c2ccc(F)cn2)nn1 [Example 80, N-Ethyl-N-{(2S)-1-[4-(5-fluoropyridin-2-yl)-1H-1,2,3-triazol-1-yl]propan-2-yl}-6-methyl-3-(pyrimidin-2-yl)pyridine-2-carboxamide] | 687 nM | 7810 nM
CCN(C(=O)c1cc(F)ccc1-c1ncccn1)[C@@H](C)Cn1cc(-c2ccc(F)cn2)nn1 [Example 81, N-Ethyl-5-fluoro-N-{(2S)-1-[4-(5-fluoropyridin-2-yl)-1H-1,2,3-triazol-1-yl]propan-2-yl}-2-(pyrimidin-2-yl) benzamide] | 177 nM | 3150 nM
CCN(C(=O)c1cc(C)ccc1-n1nccn1)[C@@H](C)Cn1cc(-c2ccc(F)cn2)nn1 [Example 82, N-Ethyl-N-{(2S)-1-[4-(5-fluoropyridin-2-yl)-1H-1,2,3-triazol-1-yl]propan-2-yl}-5-methyl-2-(2H-1,2,3-triazol-2-yl)benzamide] | 2.2 nM | 13.3 nM
CCN(C(=O)c1nc(C)ccc1-n1nccn1)[C@@H](C)Cn1cc(-c2ccc(F)cc2)nn1 [Example 83, N-Ethyl-N-{(2S)-1-[4-(4-fluorophenyl)-1H-1,2,3-triazol-1-yl]propan-2-yl}-6-methyl-3-(2H-1,2,3-triazol-2-yl)pyridine-2-carboxamide] | 9.9 nM | 308 nM
CCN(C(=O)c1cc(F)ccc1-n1nccn1)[C@@H](C)Cn1cc(-c2ccc(F)cc2)nn1 [Example 84, N-Ethyl-5-fluoro-N-{(2S)-1-[4-(4-fluorophenyl)-1H-1,2,3-triazol-1-yl]propan-2-yl}-2-(2H-1,2,3-triazol-2-yl)benzamide] | 3.1 nM | 51.4 nM

— patent US20150166523A1, “BRANCHED CHAIN ALKYL HETEROAROMATIC RING DERIVATIVE” (TAISHO PHARMACEUTICAL CO., LTD., priority 2012, published 2015)
